Laboratory results: ChEMBL document CHEMBL3612012, “Identification of orally-bioavailable antagonists of the TRPV4 ion-channel” (Bioorg Med Chem Lett, 2015)

Assays:
[1] = Volume of distribution at steady state in Wistar rat at 1.40 mg/kg, iv; assay type: ADME, organism-based; conditions: in vivo, 1.4 mg/kg, read-out: Vdss
[2] = molecular target: Nociceptin receptor (Homo sapiens) (UniProt P41146); assay: Binding affinity to human ORL1 receptor assessed as inhibition of control specific binding at 10 uM
[3] = molecular target: Transient receptor potential cation channel subfamily V member 4 (Rattus norvegicus, UniProt Q9ERZ8); assay: Antagonist activity at rat TRPV4 receptor expressed in HEK293 cells assessed as inhibition of EC80 of 4alpha-PDD-stimulated calcium flux after 10 mins; assay type: cell-based
[4] = molecular target: Melatonin receptor type 1A (Homo sapiens) (UniProt P48039); assay: Binding affinity to human MT1 receptor assessed as inhibition of control specific binding at 10 uM
[5] = molecular target: T1, Transient receptor potential cation channel subfamily V member 4 (Mus musculus, UniProt Q9EPK8); assay: Antagonist activity at mouse TRPV4 receptor expressed in HEK293 cells assessed as inhibition of EC80 of 4alpha-PDD-stimulated calcium flux after 10 mins; assay type: cell-based
T1 sequence (Q9EPK8 whole entry): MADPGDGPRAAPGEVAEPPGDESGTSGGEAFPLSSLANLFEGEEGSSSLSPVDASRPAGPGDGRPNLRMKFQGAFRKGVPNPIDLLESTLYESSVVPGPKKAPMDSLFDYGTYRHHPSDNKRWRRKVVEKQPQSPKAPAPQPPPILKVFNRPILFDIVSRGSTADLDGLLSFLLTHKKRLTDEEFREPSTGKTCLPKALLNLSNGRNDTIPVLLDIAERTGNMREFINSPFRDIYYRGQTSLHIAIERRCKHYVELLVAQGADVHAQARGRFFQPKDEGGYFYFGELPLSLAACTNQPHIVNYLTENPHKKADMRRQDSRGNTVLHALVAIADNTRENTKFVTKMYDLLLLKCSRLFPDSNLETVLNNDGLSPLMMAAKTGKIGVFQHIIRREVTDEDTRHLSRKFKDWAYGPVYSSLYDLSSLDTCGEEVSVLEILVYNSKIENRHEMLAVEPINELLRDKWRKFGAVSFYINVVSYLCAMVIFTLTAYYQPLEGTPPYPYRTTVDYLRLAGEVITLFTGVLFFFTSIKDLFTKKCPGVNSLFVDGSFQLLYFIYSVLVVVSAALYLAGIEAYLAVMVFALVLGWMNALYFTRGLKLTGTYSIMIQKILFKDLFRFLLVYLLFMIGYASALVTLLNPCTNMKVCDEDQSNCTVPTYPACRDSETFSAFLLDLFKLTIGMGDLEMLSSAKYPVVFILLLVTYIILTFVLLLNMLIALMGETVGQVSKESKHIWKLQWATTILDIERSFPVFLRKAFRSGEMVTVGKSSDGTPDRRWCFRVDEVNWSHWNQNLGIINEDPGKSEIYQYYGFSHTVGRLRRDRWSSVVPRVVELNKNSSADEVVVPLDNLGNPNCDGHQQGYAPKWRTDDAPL

[6] = molecular target: 5-hydroxytryptamine receptor 2A (Homo sapiens) (UniProt P28223); assay: Binding affinity to human 5-HT2A receptor assessed as inhibition of control specific binding at 10 uM
[7] = AUC (infinity) in Wistar rat at 1.40 mg/kg, iv; assay type: ADME, organism-based; parameters: dose 1.4 mg/kg, time infinity, route intravenous; conditions: in vivo, 1.4 mg/kg
[8] = molecular target: Muscarinic acetylcholine receptor M2 (Homo sapiens) (UniProt P08172); assay: Binding affinity to human M2 receptor assessed as inhibition of control specific binding at 10 uM
[9] = Clearance in Wistar rat at 1.40 mg/kg, iv; assay type: ADME, organism-based; conditions: in vivo, 1.4 mg/kg
[10] = molecular target: Adenosine receptor A1 (Homo sapiens) (UniProt P30542); assay: Binding affinity to human adenosine A1 receptor assessed as inhibition of control specific binding at 10 uM
Homo sapiens [11] = organism: Homo sapiens; assay: Binding affinity to central benzodiazepine receptor (unknown origin) assessed as inhibition of control specific binding at 10 uM
[12] = Bioavailability in Wistar rat at 32.50 mg/kg, ip; assay type: ADME, organism-based; conditions: in vivo, 32.5 mg/kg
Homo sapiens [13] = organism: Homo sapiens; assay: Binding affinity to sodium channel site-2 (unknown origin) assessed as inhibition of control specific binding at 10 uM
[14] = molecular target: T2, Transient receptor potential cation channel subfamily V member 4 (Homo sapiens, UniProt Q9HBA0); assay: Antagonist activity at human TRPV4 expressed in HEK293 cells assessed as inhibition of 20% hypotonic solution-induced Ca2+ influx; assay type: cell-based
T2 sequence (Q9HBA0 whole entry): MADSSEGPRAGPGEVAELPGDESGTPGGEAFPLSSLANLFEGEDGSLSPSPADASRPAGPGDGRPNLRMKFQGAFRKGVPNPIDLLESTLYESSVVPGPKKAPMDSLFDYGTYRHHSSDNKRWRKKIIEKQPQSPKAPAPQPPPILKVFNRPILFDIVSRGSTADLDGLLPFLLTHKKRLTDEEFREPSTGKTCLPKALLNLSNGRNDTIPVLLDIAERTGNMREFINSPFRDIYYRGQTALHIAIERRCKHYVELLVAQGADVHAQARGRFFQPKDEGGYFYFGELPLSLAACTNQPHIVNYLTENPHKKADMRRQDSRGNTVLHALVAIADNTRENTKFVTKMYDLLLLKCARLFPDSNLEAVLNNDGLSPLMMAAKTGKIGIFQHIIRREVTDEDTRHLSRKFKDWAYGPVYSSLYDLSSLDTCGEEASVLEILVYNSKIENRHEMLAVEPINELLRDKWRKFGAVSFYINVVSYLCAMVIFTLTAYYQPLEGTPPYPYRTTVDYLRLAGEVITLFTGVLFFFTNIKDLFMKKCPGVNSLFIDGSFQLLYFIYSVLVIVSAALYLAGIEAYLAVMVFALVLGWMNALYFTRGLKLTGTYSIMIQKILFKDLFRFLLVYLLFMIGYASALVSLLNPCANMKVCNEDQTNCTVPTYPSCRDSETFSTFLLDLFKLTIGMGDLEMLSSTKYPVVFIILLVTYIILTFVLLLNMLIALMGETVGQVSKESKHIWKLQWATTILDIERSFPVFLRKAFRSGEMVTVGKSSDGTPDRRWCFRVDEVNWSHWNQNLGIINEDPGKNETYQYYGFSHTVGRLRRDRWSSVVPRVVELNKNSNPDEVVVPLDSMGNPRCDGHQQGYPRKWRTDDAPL

[15] = molecular target: 5-hydroxytryptamine receptor 1B (Homo sapiens) (UniProt P28222); assay: Binding affinity to human 5-HT1B receptor assessed as inhibition of control specific binding at 10 uM
[16] = molecular target: Cannabinoid receptor 1 (Homo sapiens) (UniProt P21554); assay: Binding affinity to human CB1 receptor assessed as inhibition of control specific binding at 10 uM
Sequence of Cannabinoid receptor 1 (Homo sapiens) (P21554 whole entry): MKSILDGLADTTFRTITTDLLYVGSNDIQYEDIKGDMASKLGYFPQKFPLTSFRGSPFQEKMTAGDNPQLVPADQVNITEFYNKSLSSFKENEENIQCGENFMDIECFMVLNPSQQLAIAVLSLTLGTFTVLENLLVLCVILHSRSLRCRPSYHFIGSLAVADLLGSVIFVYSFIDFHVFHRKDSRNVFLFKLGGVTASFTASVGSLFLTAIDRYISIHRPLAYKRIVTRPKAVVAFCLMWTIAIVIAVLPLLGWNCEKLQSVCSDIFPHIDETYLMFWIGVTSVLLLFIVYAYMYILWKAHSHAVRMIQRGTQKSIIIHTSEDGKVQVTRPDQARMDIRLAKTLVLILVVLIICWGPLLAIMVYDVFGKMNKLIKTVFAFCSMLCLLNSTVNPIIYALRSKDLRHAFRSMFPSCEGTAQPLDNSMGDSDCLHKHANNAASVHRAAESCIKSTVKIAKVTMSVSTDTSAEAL

[17] = molecular target: T1, Transient receptor potential cation channel subfamily V member 4; assay: Antagonist activity at mouse TRPV4 receptor expressed in HEK293 cells assessed as inhibition of 4alpha-PDD-stimulated calcium flux after 10 mins; assay type: cell-based
[18] = molecular target: Kappa-type opioid receptor (Homo sapiens) (UniProt P41145); assay: Binding affinity to human kappa opioid receptor assessed as inhibition of control specific binding at 10 uM
Sequence of Kappa-type opioid receptor (Homo sapiens) (P41145 whole entry): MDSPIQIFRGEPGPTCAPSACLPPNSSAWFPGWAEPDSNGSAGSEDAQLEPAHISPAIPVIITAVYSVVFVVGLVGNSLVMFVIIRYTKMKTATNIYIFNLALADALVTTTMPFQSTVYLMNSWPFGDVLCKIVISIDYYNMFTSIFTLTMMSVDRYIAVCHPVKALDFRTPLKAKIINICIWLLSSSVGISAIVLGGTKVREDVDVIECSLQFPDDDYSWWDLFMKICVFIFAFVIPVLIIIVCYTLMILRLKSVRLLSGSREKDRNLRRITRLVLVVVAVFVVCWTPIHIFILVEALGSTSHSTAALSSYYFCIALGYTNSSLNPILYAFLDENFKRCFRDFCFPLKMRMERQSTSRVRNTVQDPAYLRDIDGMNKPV

[19] = molecular target: Beta-2 adrenergic receptor (Homo sapiens) (UniProt P07550); assay: Binding affinity to human beta2 adrenergic receptor assessed as inhibition of control specific binding at 10 uM
Sequence of Beta-2 adrenergic receptor (Homo sapiens) (P07550 whole entry, looked up): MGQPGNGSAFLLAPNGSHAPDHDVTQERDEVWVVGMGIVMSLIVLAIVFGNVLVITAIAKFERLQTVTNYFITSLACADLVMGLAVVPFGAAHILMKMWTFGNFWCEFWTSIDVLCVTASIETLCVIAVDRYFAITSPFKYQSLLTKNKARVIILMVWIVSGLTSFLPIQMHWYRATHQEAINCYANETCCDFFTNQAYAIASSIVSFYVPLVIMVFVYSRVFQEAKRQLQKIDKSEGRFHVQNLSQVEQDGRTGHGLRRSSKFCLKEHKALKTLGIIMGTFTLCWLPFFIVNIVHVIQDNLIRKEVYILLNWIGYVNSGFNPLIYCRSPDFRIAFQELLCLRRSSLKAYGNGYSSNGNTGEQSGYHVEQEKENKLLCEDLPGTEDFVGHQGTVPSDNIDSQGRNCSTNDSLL

[20] = molecular target: Sodium-dependent noradrenaline transporter (Homo sapiens) (UniProt P23975); assay: Binding affinity to human NE transporter assessed as inhibition of control specific binding at 10 uM
[21] = molecular target: C-C chemokine receptor type 1 (Homo sapiens) (UniProt P32246); assay: Binding affinity to human CCR1 receptor assessed as inhibition of control specific binding at 10 uM
Sequence of C-C chemokine receptor type 1 (Homo sapiens) (P32246 whole entry): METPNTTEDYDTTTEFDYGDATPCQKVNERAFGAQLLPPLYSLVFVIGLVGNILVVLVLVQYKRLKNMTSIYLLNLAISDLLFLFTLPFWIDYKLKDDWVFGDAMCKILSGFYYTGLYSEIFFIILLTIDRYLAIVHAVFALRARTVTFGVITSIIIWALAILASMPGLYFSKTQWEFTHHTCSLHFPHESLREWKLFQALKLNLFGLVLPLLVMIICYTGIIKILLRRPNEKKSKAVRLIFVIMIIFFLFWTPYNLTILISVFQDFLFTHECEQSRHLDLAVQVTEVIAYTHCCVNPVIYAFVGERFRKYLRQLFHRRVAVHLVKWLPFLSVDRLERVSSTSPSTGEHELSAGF

[22] = molecular target: Adrenergic receptor alpha-2 (Homo sapiens) (UniProt P08913+P18825+P18089); assay: Binding affinity to non-selective alpha2 adrenergic receptor (unknown origin) assessed as inhibition of control specific binding at 10 uM; assay type: protein assay
[23] = molecular target: 5-hydroxytryptamine receptor 3A (Homo sapiens) (UniProt P46098); assay: Binding affinity to human 5-HT3 receptor assessed as inhibition of control specific binding at 10 uM
[24] = molecular target: Muscarinic acetylcholine receptor M3 (Homo sapiens) (UniProt P20309); assay: Binding affinity to human M3 receptor assessed as inhibition of control specific binding at 10 uM
[25] = molecular target: Vasopressin V1a receptor (Homo sapiens) (UniProt P37288); assay: Binding affinity to human V1a receptor assessed as inhibition of control specific binding at 10 uM
[26] = molecular target: Sodium-dependent dopamine transporter (Homo sapiens) (UniProt Q01959); assay: Binding affinity to human DA transporter assessed as inhibition of control specific binding at 10 uM
[27] = molecular target: D(2) dopamine receptor (Homo sapiens) (UniProt P14416); assay: Binding affinity to human D2S receptor assessed as inhibition of control specific binding at 10 uM
[28] = molecular target: Galanin receptor type 2 (Homo sapiens) (UniProt O43603); assay: Binding affinity to human GAL2 receptor assessed as inhibition of control specific binding at 10 uM
Sequence of Galanin receptor type 2 (Homo sapiens) (O43603 whole entry): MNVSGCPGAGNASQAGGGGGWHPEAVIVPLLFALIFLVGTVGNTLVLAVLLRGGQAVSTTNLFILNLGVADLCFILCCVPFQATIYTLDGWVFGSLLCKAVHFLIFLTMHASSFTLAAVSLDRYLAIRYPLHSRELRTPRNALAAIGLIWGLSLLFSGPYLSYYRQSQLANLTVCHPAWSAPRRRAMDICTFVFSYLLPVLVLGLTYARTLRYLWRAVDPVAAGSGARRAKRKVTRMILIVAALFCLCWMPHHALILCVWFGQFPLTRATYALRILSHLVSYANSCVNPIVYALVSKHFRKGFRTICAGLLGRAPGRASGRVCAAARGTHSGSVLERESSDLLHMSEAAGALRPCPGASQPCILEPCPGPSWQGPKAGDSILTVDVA

[29] = molecular target: Delta-type opioid receptor (Homo sapiens) (UniProt P41143); assay: Binding affinity to human detla2 opioid receptor assessed as inhibition of control specific binding at 10 uM
Sequence of Delta-type opioid receptor (Homo sapiens) (P41143 whole entry): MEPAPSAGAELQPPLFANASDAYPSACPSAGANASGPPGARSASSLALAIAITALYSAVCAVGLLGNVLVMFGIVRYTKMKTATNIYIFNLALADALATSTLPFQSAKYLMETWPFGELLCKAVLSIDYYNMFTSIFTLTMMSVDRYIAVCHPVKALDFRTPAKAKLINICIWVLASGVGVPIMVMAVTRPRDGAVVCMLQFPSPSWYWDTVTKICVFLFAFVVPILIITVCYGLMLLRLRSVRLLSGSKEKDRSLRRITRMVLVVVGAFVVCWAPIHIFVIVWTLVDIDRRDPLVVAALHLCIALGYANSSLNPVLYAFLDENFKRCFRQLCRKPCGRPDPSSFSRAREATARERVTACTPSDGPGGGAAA

[30] = molecular target: T2, Transient receptor potential cation channel subfamily V member 4; assay: Antagonist activity at human TRPV4 receptor expressed in HEK293 cells assessed as inhibition of EC80 of 4alpha-PDD-stimulated calcium flux after 10 mins; assay type: cell-based
[31] = molecular target: 5-hydroxytryptamine receptor 5A (Homo sapiens) (UniProt P47898); assay: Binding affinity to human 5-HT5A receptor assessed as inhibition of control specific binding at 10 uM
[32] = molecular target: Neuropeptide Y receptor type 1 (Homo sapiens) (UniProt P25929); assay: Binding affinity to human Y1 receptor assessed as inhibition of control specific binding at 10 uM
Sequence of Neuropeptide Y receptor type 1 (Homo sapiens) (P25929 whole entry): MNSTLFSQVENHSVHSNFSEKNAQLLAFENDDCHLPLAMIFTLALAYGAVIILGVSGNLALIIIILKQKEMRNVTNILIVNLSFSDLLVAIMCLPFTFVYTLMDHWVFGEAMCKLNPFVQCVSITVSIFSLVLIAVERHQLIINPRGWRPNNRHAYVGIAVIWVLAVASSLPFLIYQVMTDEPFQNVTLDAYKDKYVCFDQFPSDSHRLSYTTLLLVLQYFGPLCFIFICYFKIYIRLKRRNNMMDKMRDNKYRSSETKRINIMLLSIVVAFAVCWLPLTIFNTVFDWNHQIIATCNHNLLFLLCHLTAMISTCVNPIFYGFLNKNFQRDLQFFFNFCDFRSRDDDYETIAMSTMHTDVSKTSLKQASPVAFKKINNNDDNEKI

[33] = molecular target: Substance-K receptor (Homo sapiens) (UniProt P21452); assay: Binding affinity to human NK2 receptor assessed as inhibition of control specific binding at 10 uM
[34] = molecular target: 5-hydroxytryptamine receptor 6 (Homo sapiens) (UniProt P50406); assay: Binding affinity to human 5-HT6 receptor assessed as inhibition of control specific binding at 10 uM
[35] = molecular target: Histamine H2 receptor (Homo sapiens) (UniProt P25021); assay: Binding affinity to human H2 receptor assessed as inhibition of control specific binding at 10 uM
Sequence of Histamine H2 receptor (Homo sapiens) (P25021 whole entry): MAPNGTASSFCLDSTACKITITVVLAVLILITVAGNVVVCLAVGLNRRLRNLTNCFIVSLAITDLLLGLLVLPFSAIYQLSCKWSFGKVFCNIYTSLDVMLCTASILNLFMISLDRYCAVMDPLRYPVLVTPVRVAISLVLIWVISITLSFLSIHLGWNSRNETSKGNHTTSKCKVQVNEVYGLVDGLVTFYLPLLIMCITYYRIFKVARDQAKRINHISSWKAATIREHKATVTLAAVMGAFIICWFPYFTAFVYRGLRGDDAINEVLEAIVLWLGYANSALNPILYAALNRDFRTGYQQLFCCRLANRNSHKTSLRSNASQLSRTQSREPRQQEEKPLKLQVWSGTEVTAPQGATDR

[36] = molecular target: Adenosine receptor A2a (Homo sapiens) (UniProt P29274); assay: Binding affinity to human adenosine A2A receptor assessed as inhibition of control specific binding at 10 uM
[37] = Plasma protein binding in human; assay type: ADME, cell-free; conditions: read-out: PPB (converted)
Homo sapiens [38] = organism: Homo sapiens; assay: Binding affinity to SK+ calcium channel (unknown origin) assessed as inhibition of control specific binding at 10 uM

Vd [1]: 1.44 L/kg | inhibition [2]: -2% | IC50 [3]: 660 nM | inhibition [4]: 5% | IC50 [5]: 320 nM | inhibition [6]: 28% | AUC(0-inf) [7]: 1010 ng·h/mL | inhibition [8]: 6% | clearance [9]: 23.7 mL/min/kg | inhibition [10]: 2% | inhibition (Homo sapiens [11]): 9% | bioavailability [12]: 75% | inhibition (Homo sapiens [13]): 17% | IC50 [14]: 570 nM | inhibition [15]: -2% | inhibition [16]: 3% | IC50 [17]: 57 nM | inhibition [18]: 3% | inhibition [19]: 1% | inhibition [20]: 4% | inhibition [21]: -5% | inhibition [22]: -1% | inhibition [23]: -3% | inhibition [24]: 21% | inhibition [25]: 1% | inhibition [26]: 10% | inhibition [27]: 2% | inhibition [28]: 4% | inhibition [29]: 6% | IC50 [30]: 420 nM | inhibition [31]: 0% | inhibition [32]: -8% | inhibition [33]: 15% | inhibition [34]: -2% | inhibition [35]: -4% | inhibition [36]: -7% | fraction unbound [37]: 0.01 | inhibition (Homo sapiens [38]): -4%
Structure (SMILES): CC(C)N1CCN(S(=O)(=O)c2ccc(NC(=O)c3ccc(C(F)(F)F)cc3[N+](=O)[O-])cc2)CC1
